Results published in article PMC2748256 (ACS chemical biology, 2009).
pIC50: −log10 of the molar value.

Target: DM2 (RNA7)-MBNL-1 complex
Format: biochemical
Details: ligand added to well containing immobilized RNA7, then MBNL-1

`C#CCCCC(=O)NC[C@@H]1O[C@@H](O[C@H]2[C@H](O)[C@@H](O[C@@H]3O[C@@H](CO)[C@H](O)[C@@H](N)[C@@H]3O)[C@H](N)C[C@@H]2N)[C@@H](O)[C@H](O)[C@H]1O` [Compound 1, 6′-N-5-hexynoate kanamycin A] showed a pIC50 of 3.66.
